US8969388B1, “Substituted pyrazolone compounds and methods of use” (Calitor Sciences, LLC, priority 2012, dated 2015)
Like-named read-outs stand apart in the source and are kept apart here. One block for each compound: values may come before it.

Assays:
KDR (h) = target: T1, KDR (h) (Homo sapiens, UniProt P35968); assay: KINOMEscan competition binding assay, KDR (h)
T1 construct: host or cells: E. coli BL21-derived host (T7 phage) or HEK-293
Protocol: (§1) Alternatively, the kinase activities of the compounds can be measured using KINOMEscan™, which is based on a competition binding assay that quantitatively measures the ability of a compound to compete with an immobilized, active-site directed ligand. The assay was performed by combining three components: DNA-tagged kinase; immobilized ligand; and a test compound. The ability of the test compound to compete with the immobilized ligand was measured via quantitative PCR of the DNA tag.
(§2) For most assays, kinase-tagged T7 phage strains were prepared in an E. coli host derived from the BL21 strain. E. coli were grown to log-phase and infected with T7 phage and incubated with shaking at 32° C. until lysis. The lysates were centrifuged and filtered to remove cell debris. The remaining kinases were produced in HEK-293 cells and subsequently tagged with DNA for qPCR detection. Streptavidin-coated magnetic beads were treated with biotinylated small molecule ligands for 30 minutes at room temperature to generate affinity resins for kinase assays. The liganded beads were blocked with excess biotin and washed with blocking buffer (SEABLOCK™ (Pierce), 1% BSA, 0.05% TWEEN®20, 1 mM DTT) to remove unbound ligand and to reduce nonspecific binding. Binding reactions were assembled by combining kinases, liganded affinity beads, and test compounds in 1× binding buffer (20% SEABLOCK™, 0.17×PBS, 0.05% TWEEN®20, 6 mM DTT). All reactions were performed in polystyrene 96-well plates in a final volume of 0.135 mL. The assay plates were incubated at room temperature with shaking for 1 hour and the affinity beads were washed with wash buffer (1×PBS, 0.05% TWEEN®20). The beads were then re-suspended in elution buffer (1×PBS, 0.05% TWEEN®20, 0.5 μM non-biotinylated affinity ligand) and incubated at room temperature with shaking for 30 minutes. The kinase concentration in the eluates was measured by qPCR.
(§3) The kinase assays described herein were performed using KINOMEscan™ Profiling Service at DiscoveRx Corporation, 42501 Albrae St. Fremont, Calif.

c-Met (h) = target: T2, c-Met (h) (Homo sapiens, UniProt P08581); assay: KINOMEscan competition binding assay, c-Met (h)
T2 construct: host or cells: E. coli BL21-derived host (T7 phage) or HEK-293
T2 sequence (P08581 25-1390): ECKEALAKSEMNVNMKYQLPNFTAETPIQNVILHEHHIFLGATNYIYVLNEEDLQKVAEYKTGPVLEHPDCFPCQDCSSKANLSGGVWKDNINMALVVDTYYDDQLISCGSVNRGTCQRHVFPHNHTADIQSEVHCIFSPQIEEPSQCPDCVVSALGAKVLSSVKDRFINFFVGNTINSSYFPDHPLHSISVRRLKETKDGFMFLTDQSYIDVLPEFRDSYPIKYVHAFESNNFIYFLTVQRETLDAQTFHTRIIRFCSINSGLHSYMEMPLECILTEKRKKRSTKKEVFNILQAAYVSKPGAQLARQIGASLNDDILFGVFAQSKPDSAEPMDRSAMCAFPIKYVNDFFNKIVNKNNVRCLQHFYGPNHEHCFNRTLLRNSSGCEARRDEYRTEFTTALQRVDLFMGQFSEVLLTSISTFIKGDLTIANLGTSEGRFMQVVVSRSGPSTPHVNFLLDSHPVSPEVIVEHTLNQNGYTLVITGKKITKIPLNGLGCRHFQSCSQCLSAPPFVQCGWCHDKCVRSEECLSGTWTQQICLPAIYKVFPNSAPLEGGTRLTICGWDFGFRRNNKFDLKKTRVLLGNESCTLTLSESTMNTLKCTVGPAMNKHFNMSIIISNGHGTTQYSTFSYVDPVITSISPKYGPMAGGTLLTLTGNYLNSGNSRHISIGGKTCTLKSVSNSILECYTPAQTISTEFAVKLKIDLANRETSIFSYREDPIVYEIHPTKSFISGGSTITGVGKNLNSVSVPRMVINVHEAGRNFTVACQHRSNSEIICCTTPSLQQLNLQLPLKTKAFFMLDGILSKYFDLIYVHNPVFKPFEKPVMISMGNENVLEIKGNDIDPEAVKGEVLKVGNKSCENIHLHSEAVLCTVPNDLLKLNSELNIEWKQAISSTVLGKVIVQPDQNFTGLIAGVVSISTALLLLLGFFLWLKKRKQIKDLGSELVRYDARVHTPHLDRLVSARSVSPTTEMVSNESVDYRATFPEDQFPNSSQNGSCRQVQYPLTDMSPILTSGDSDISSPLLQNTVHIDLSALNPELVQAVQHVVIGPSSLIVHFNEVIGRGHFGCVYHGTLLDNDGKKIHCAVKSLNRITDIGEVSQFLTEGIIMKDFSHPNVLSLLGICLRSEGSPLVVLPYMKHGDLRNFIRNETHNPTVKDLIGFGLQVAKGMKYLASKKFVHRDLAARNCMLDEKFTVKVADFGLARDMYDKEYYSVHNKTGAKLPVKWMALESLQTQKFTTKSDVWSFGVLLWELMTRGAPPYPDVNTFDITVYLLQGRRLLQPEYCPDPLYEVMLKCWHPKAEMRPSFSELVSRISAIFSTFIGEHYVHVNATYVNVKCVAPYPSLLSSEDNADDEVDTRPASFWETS
Protocol: as §1, §2, §3

[1] = Pharmacokinetics after intravenous and oral administration in rats; type: in vivo; conditions: for F: oral bioavailability, oral dose not given; for AUC(0-t) / half-life / Vd: rat, plasma; for clearance (CL) after iv dosing / AUC(0-t) / half-life / Vd: iv dosing; for Vd: read-out: Vss
Protocol: The compounds disclosed herein are assessed in pharmacokinetic studies in mice, rats, dogs or monkeys. The compounds are administered as a water solution, 2% HPMC+1% TWEEN®80 in water solution, 5% DMSO+5% solutol in saline, 4% MC suspension or capsule. For the intravenous administration, the animals are generally given at 1 or 2 mg/kg dose. For the oral (p.o.) dosing, mice and rats are generally given 5 or 10 mg/kg dose, and dogs and monkeys are generally given 10 mg/kg dose. The blood samples (0.3 mL) are drawn at 0.25, 0.5, 1.0, 2.0, 3.0, 4.0, 6.0, 8.0, 12 and 24 h time points or 0.083, 0.25, 0.5, 1.0, 2.0, 4.0, 6.0, 8.0 and 24 h time points and centrifuged at 3,000 or 4000 rpm for 2 to 10 min. The plasma solutions are collected, stored at −20° C. or −70° C. until analyzed by LC/MS/MS as described above.

U87MG glioblastoma cells = assay: U87MG tumor xenograft model, tumor growth inhibition; type: in vivo, athymic nude mice (BALB/cA nu/nu); conditions: mice, oral gavage
Protocol: The efficacy of compounds disclosed herein was evaluated in a standard murine model of tumorigenesis. Human tumor cells (U87MG glioblastoma cells from ATCC) were expended in culture, harvested, and injected subcutaneously onto the rear flank of 6-7 week old female athymic nude mice (BALB/cA nu/nu, Hunan SLAC Laboratory Animal, Co.) (n=6-10 for vehicle group and for each dosing group). When tumors reached a volume of 100-250 mm^3, animals were randomly divided into vehicle control (for example, 5% DMSO+70% Captisol® (30%), 7% HCl (pH1), 18% Captisol® (30%); or 7% DMSO, 7% HCl (pH1), 70% Captisol® (30%), 16% Captisol® (30%), or the like) and compound groups. Subsequent administration of compound by oral gavage begins anywhere from day 0 to day 15 post tumor cell challenge and generally continues with once a day for the duration of the experiment.
Progression of tumor growth is assessed by tumor volumes and recorded as a function of time. The long (L) and short (W) axes of the subcutaneous tumors were measured with calipers twice weekly, and the tumor volume (TV) calculated as (L×W^2)/2). TGI was calculated from the difference between the median tumor volumes of vehicle-treated and drug-treated mice, expressed as a percentage of the median tumor volume of the vehicle-treated control group, by the following relation:
[formula] Initial statistical analysis is done by repeated measures analysis of variance (RMANOVA), followed by Scheffe psot hoc testing for multiple comparisons. Vehicle alone (5% DMSO+70% Captisol® (30%), 7% HCl (pH1), 18% Captisol® (30%); or 7% DMSO, 7% HCl (pH1), 70% Captisol® (30%), 16% Captisol® (30%), or the like) is the negative control.

T1 sequence (P35968 20-1356): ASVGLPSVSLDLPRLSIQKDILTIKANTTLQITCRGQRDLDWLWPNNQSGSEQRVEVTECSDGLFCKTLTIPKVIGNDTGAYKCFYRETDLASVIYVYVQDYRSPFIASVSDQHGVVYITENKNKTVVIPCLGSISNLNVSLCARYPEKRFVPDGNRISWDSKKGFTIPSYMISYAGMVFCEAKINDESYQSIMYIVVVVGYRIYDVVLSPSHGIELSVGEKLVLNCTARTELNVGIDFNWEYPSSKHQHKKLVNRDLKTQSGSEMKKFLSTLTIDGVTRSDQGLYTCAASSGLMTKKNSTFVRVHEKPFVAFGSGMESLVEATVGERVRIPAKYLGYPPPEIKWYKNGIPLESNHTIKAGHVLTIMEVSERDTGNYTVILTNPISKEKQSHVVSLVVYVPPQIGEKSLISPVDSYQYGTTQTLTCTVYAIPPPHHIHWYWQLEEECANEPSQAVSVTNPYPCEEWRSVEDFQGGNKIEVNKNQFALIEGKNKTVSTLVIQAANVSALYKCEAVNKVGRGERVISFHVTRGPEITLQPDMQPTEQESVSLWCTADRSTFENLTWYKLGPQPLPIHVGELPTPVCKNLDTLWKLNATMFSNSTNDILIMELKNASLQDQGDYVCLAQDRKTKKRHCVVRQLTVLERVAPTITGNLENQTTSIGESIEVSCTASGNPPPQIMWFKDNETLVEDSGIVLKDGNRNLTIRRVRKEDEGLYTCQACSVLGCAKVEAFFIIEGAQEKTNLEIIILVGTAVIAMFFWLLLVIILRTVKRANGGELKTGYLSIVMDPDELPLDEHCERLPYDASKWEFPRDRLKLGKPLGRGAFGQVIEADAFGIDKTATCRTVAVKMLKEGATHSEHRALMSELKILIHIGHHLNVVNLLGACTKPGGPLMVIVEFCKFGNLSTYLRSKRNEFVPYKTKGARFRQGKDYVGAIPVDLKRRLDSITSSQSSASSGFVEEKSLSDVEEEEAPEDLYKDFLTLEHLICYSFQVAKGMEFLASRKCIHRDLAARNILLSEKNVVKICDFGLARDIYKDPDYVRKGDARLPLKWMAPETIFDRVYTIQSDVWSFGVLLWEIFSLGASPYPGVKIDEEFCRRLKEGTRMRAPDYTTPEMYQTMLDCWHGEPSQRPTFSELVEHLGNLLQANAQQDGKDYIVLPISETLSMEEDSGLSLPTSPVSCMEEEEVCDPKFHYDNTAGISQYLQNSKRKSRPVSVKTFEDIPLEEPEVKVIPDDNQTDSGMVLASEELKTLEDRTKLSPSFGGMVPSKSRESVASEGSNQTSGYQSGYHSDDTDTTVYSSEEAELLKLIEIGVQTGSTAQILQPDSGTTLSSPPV

Compound: CC(=O)Nc1nccc(Oc2ccc(NC(=O)c3c(C)n(C)n(-c4ccccc4)c3=O)nc2)c1Cl [Ex. 20, N-(5-((2-acetamido-3-chloropyridin-4-yl)oxy)pyridin-2-yl)-1,5-dimethyl-3-oxo-2-phenyl-2,3-dihydro-1H-pyrazole-4-carboxamide]
Kd (KDR (h)): 1600 nM
Kd (c-Met (h)): 620 nM

Compound: Cc1c(C(=O)Nc2ccc(Oc3ccnc(N)c3)c(F)c2F)c(=O)n(-c2ccccc2)n1C [Ex. 5, N-(4-((2-aminopyridin-4-yl)oxy)-2,3-difluorophenyl)-1,5-dimethyl-3-oxo-2-phenyl-2,3-dihydro-1H-pyrazole-4-carboxamide]
clearance (CL) after iv dosing ([1]; 2 mg/kg): 1.87 L/h/kg
F ([1]; iv dose 2 mg/kg): 19.1%
AUC(0-t) ([1]; 2 mg/kg): 1080 ng·h/mL
half-life ([1]; 2 mg/kg): 18.6 min
Vd ([1]; 2 mg/kg): 0.53 L/kg
Kd (KDR (h)): 3300 nM
Kd (c-Met (h)): 37 nM

Compound: Cc1c(C(=O)Nc2cc(F)c(Oc3ccnc(NC(=O)N4CCOCC4)c3)cc2F)c(=O)n(-c2ccccc2)n1C [Ex. 10, N-(4-(4-(1,5-dimethyl-3-oxo-2-phenyl-2,3-dihydro-1H-pyrazole-4-carboxamido)-2,5-difluorophenoxy)pyridin-2-yl)morpholine-4-carboxamide]
clearance (CL) after iv dosing ([1]; 1 mg/kg): 0.11 L/h/kg
F ([1]; iv dose 1 mg/kg): 83.2%
AUC(0-t) ([1]; 1 mg/kg): 9640 ng·h/mL
half-life ([1]; 1 mg/kg): 276 min
Vd ([1]; 1 mg/kg): 0.53 L/kg

Compound: CC(=O)Nc1nccc(Oc2ccc(NC(=O)c3c(C)n(C)n(-c4ccccc4)c3=O)cc2F)c1Cl [Ex. 4, N-(4-((2-acetamido-3-chloropyridin-4-yl)oxy)-3-fluorophenyl)-1,5-dimethyl-3-oxo-2-phenyl-2,3-dihydro-1H-pyrazole-4-carboxamide]
Kd (KDR (h)): 540 nM
Kd (c-Met (h)): 24 nM

Compound: Cc1c(C(=O)Nc2cc(F)c(Oc3ccnc(N)c3Cl)cc2F)c(=O)n(-c2ccccc2)n1C [Ex. 11, N-(4-((2-amino-3-chloropyridin-4-yl)oxy)-2,5-difluorophenyl)-1,5-dimethyl-3-oxo-2-phenyl-2,3-dihydro-1H-pyrazole-4-carboxamide]
clearance (CL) after iv dosing ([1]; 2 mg/kg): 0.57 L/h/kg
F ([1]; iv dose 2 mg/kg): 88.0%
AUC(0-t) ([1]; 2 mg/kg): 3340 ng·h/mL
half-life ([1]; 2 mg/kg): 174 min
Vd ([1]; 2 mg/kg): 1.17 L/kg
Kd (KDR (h)): 340 nM
Kd (c-Met (h)): 1.4 nM

Compound: Cc1c(C(=O)Nc2ccc(Oc3ccnc(N)c3Cl)cn2)c(=O)n(-c2ccccc2)n1C [Ex. 19, N-(5-((2-amino-3-chloropyridin-4-yl)oxy)pyridin-2-yl)-1,5-dimethyl-3-oxo-2-phenyl-2,3-dihydro-1H-pyrazole-4-carboxamide]
Kd (KDR (h)): 26 nM
Kd (c-Met (h)): 16 nM
TGI % (on last day of dosing) (U87MG glioblastoma cells; 6 mg/kg, 12 days): 22%
TGI % (on last day of dosing) (U87MG glioblastoma cells; 20 mg/kg, 12 days): 49%
TGI % (on last day of dosing) (U87MG glioblastoma cells; 60 mg/kg, 12 days): 103%

Compound: [2H]c1cc(Oc2ccnc(N)c2)ccc1NC(=O)c1c(C)n(C)n(-c2ccccc2)c1=O [Ex. 15, N-(4-((2-aminopyridin-4-yl)oxy)-2-deuteriumphenyl)-1,5-dimethyl-3-oxo-2-phenyl-2,3-dihydro-1H-pyrazole-4-carboxamide]
Kd (KDR (h)): 3800 nM
Kd (c-Met (h)): 180 nM

Compound: CC(=O)Nc1cc(Oc2ccc(NC(=O)c3c(C)n(C)n(-c4ccccc4)c3=O)c(Cl)c2)ccn1 [Ex. 13, N-(4-((2-acetamidopyridin-4-yl)oxy)-2-chlorophenyl)-1,5-dimethyl-3-oxo-2-phenyl-2,3-dihydro-1H-pyrazole-4-carboxamide]
Kd (KDR (h)): 570 nM
Kd (c-Met (h)): 18 nM

Continued by falling Kd (KDR (h)), values first:

clearance (CL) after iv dosing ([1]; 2 mg/kg): 0.94 L/h/kg
F ([1]; iv dose 2 mg/kg): 125.0%
AUC(0-t) ([1]; 2 mg/kg): 2120 ng·h/mL
half-life ([1]; 2 mg/kg): 93.6 min
Vd ([1]; 2 mg/kg): 0.69 L/kg
Kd (KDR (h)): 19000 nM
Kd (c-Met (h)): 56 nM
Compound: Cc1c(C(=O)Nc2ccc(Oc3ccnc(N)c3)cc2Cl)c(=O)n(-c2ccccc2)n1C [Ex. 12, N-(4-((2-aminopyridin-4-yl)oxy)-2-chlorophenyl)-1,5-dimethyl-3-oxo-2-phenyl-2,3-dihydro-1H-pyrazole-4-carboxamide]

Kd (KDR (h)): 1800 nM
Kd (c-Met (h)): 200 nM
Compound: Cc1c(C(=O)Nc2ccc(Oc3ccnc(N)c3)cn2)c(=O)n(-c2ccccc2)n1C [Ex. 16, N-(5-((2-aminopyridin-4-yl)oxy)pyridin-2-yl)-1,5-dimethyl-3-oxo-2-phenyl-2,3-dihydro-1H-pyrazole-4-carboxamide]

Kd (KDR (h)): 1100 nM
Kd (c-Met (h)): 120 nM
Compound: CC(=O)Nc1nccc(Oc2ccc(NC(=O)c3c(C)n(C)n(-c4ccccc4)c3=O)cc2)c1Cl [Ex. 21, N-(4-((2-acetamido-3-chloropyridin-4-yl)oxy)phenyl)-1,5-dimethyl-3-oxo-2-phenyl-2,3-dihydro-1H-pyrazole-4-carboxamide]

clearance (CL) after iv dosing ([1]; 1 mg/kg): 0.04 L/h/kg
F ([1]; iv dose 1 mg/kg): 61.2%
AUC(0-t) ([1]; 1 mg/kg): 23300 ng·h/mL
half-life ([1]; 1 mg/kg): 286 min
Vd ([1]; 1 mg/kg): 0.24 L/kg
Kd (KDR (h)): 160 nM
Kd (c-Met (h)): 1.8 nM
Compound: CC(=O)Nc1cc(Oc2cc(F)c(NC(=O)c3c(C)n(C)n(-c4ccccc4)c3=O)cc2F)ccn1 [Ex. 9, N-(4-((2-acetamidopyridin-4-yl)oxy)-2,5-difluorophenyl)-1,5-dimethyl-3-oxo-2-phenyl-2,3-dihydro-1H-pyrazole-4-carboxamide]

clearance (CL) after iv dosing ([1]; 1 mg/kg): 0.24 L/h/kg
F ([1]; iv dose 1 mg/kg): 77.2%
AUC(0-t) ([1]; 1 mg/kg): 4290 ng·h/mL
half-life ([1]; 1 mg/kg): 73.8 min
Vd ([1]; 1 mg/kg): 0.36 L/kg
Kd (KDR (h)): 39 nM
Kd (c-Met (h)): 2.9 nM
Compound: Cc1c(C(=O)Nc2ccc(Oc3ccnc(NC(=O)N4CCOCC4)c3)cn2)c(=O)n(-c2ccccc2)n1C [Ex. 18, N-(4-((6-(1,5-dimethyl-3-oxo-2-phenyl-2,3-dihydro-1H-pyrazole-4-carboxamido)pyridin-3-yl)oxy)pyridin-2-yl)morpholine-4-carboxamide]
TGI % (on last day of dosing) (U87MG glioblastoma cells; 6 mg/kg, 14 days): 28%
TGI % (on last day of dosing) (U87MG glioblastoma cells; 20 mg/kg, 14 days): 49%
TGI % (on last day of dosing) (U87MG glioblastoma cells; 60 mg/kg, 14 days): 57%

clearance (CL) after iv dosing ([1]; 2 mg/kg): 0.03 L/h/kg
F ([1]; iv dose 2 mg/kg): 69.7%
AUC(0-t) ([1]; 2 mg/kg): 56600 ng·h/mL
half-life ([1]; 2 mg/kg): 264 min
Vd ([1]; 2 mg/kg): 0.18 L/kg
Kd (KDR (h)): 13 nM
Kd (c-Met (h)): 5.1 nM
Compound: CC(=O)Nc1cc(Oc2ccc(NC(=O)c3c(C)n(C)n(-c4ccccc4)c3=O)cc2F)ccn1 [Ex. 23, N-(4-((2-acetamidopyridin-4-yl)oxy)-3-fluorophenyl)-1,5-dimethyl-3-oxo-2-phenyl-2,3-dihydro-1H-pyrazole-4-carboxamide]
